“And” between values parts separate entries of the source, which are not always exact repeats. Equal values may be shown once.
Experiments:
[1] = test system: patients with Familial Chylomicronemia Syndrome (FCS); assay: Clinical study in FCS patients: safety and tolerability (adverse events, liver function tests, maximum dose); format: in vivo, human
Protocol: (§1) Treatment was initiated at 5 mg once daily, and the dose titrated based on acceptable safety/tolerability. After a minimum of 2 weeks at 5 mg once daily the dose was then titrated at a minimum of 4-week intervals to 10 mg, 20 mg, 40 mg, and 60 mg/day (e.g., as shown in the table below) or until an individually determined maximum dose (e.g., in the range of 5-60 mg/day) was reached based on lipid profile, and safety/tolerability. Dose adjustments were also made according to liver transaminase levels. If subjects experienced confirmed alanine aminotransferase (ALT) or aspartate aminotransferase (AST) elevations between 3-5×ULN, or >100 U/L but <200 U/L above the baseline value, the dose of lomitapide was reduced to the previously tolerated dose level, with the possibility to re-escalate dose once transaminase elevations were resolved. Once a maximum dose was established, patients remained on this dose up to Week 26.
(§2) Lipid levels and safety indices, including liver function tests, were evaluated at baseline, before each dose increase, and then every 4 weeks until week 26.
(§3) Secondary endpoints include other lipid parameters, hepatic fat and liver stiffness and Chylomicron kinetics of Lomitapide in combination with other lipid lowering agents in term of changes at 26 weeks from baseline. Including: • a) Percent change in TC, non-HDL-C, LDL-C, VLDL, Lp(a), as well as apolipoproteins B and A1. • b) Safety of Lomitapide in patients with FCS assessed by changes in laboratory parameters, electrocardiogram, physical examinations and weight. • c) Record of episodes of pancreatitis • d) Change in hepatic fat liver stiffness measured by MRI and/or Transient Elastography (Fibroscan). • e) Chylomicron kinetics.
Adverse events (AEs) were coded using MedDRA, Version 11.0. AEs were judged by the investigators as not related, unlikely, possibly, probably or definitely related to study drug and were reviewed regularly by an independent Data and Safety Monitoring Board.

[2] = test system: patients with Familial Chylomicronemia Syndrome (FCS); assay: Clinical study of lomitapide in patients with FCS: fasting lipids, lipoproteins, pancreatitis episodes (26 weeks); format: in vivo
Source text: This clinical study evaluated the safety, tolerability, and efficacy of Lomitapide in patients with Familial Chylomicronemia Syndrome (FCS).
Patients were screened for eligibility between 12 to 6 weeks before the first dose of Lomitapide (screening period). After screening period, all enrolled patients entered a run-in phase of at least 6 weeks during which lipid-lowering therapy, daily dietary supplementation of vitamin E, essential fatty acids and a low-fat diet are instituted and stabilized. At the end of the run-in phase, the patients entered into a 26-week efficacy phase, during which they receive lomitapide in addition to their lipid-lowering therapy. Patients must follow a diet comprising <10% energy from fat per day during all the study.
All patients who meet the eligibility criteria, and after 6-week diet period (run-in) were treated with Lomitapide 5 mg, 10 mg, 15 mg, 20 mg, 30 mg, 40 mg, 50 mg up to 60 mg daily based on lipid profile and tolerability. Patients remain at their maximum dose until the end of 26 weeks.
as §1, §2
The Primary Endpoint was percent change in tryglycerides (TG) at the maximum tolerated dose compared to baseline after 26 weeks of treatment in combination with other lipid lowering therapy in patients with Familial Chylomicronemia Syndrome (FCS).
as §3
To enable collection of data for the primary and other endpoints a fasting lipid and safety panel, including liver function tests, was obtained at baseline, prior to each dose escalation, and every 4 weeks thereafter until Week 26. Blood was drawn at baseline and at each visit following a 12 hour fast. Testing included a standard metabolic panel, a complete blood count, urinalysis. Ten patients underwent a metabolic study to determine postprandial chylomicron metabolism and fatty acid profile. Available samples were separated by centrifugation and immediately stored at −80° C. and were shipped in dry ice at the end of the study for analysis.
Lipid and lipoprotein analyses were conducted on serum samples. Total cholesterol (TC), high density lipoprotein-cholesterol (HDL-C), and TGs were measured enzymatically. Non-HDL-C was calculated by subtracting HDL-C levels from TC levels. ApoA-I, apoB and Lp(a) were measured by immunonephelometry. […]

[3] = test system: patients with Familial Chylomicronemia Syndrome (FCS); assay: Clinical study in FCS patients: hepatic fat (MRI), liver stiffness, NFS and FIB-4 scores; format: in vivo, human
Source text: as §3
Percentage hepatic fat was determined by magnetic resonance imaging (MRI) at baseline and Week 26. The MRI protocol included a dual-phase sequence and the IDEAL IQ sequence. Post-processing software, provided by the manufacturer, was used to generate fat fraction maps. A radiologist trained in abdominal imaging imaged four 1 cm^2 regions of interest (ROIs) to measure in-phase signal intensities of the liver parenchyma. ROIs were copied from the in-phase images to the opposed-phase to ensure identical size and location. Focal hepatic lesions, major branches of portal or hepatic veins, and artifacts were avoided. The mean of the signal intensity of the liver was calculated as the average value of the four signal intensities of the liver parenchyma both in the in-phase and in the opposed phase. The hepatic fat fraction was then calculated with the following formula: 100×(signal intensityIP−signal intensityOP)/(2×signal intensityIP). Finally, ROIs were also copied in the HFF Axial IDEAL IQ map to ensure identical size and location (this map was not available in one patient). The liver ROIs placed on the IDEAL-IQ fat fraction reconstruction were used to generate estimates of percentage fat.
Noninvasive quantification of liver stiffness (LSM) in kPa (estimated fibrosis score: F0 to F1: 2-7 kPa; F2: 7.5-10 kPa; F3: 10-14 kPa; F4: […]) was measured by ultrasound-based transient elastography using FibroScan® or shear wave elastography. Non-alcoholic fatty liver disease fibrosis score (NFS) and fibrosis-4 (FIB-4) score were calculated according to Angulo et al (2007) (Angulo P, Hui J M, Marchesini G, et al. The NAFLD fibrosis score: a noninvasive system that identifies liver fibrosis in patients with NAFLD. Hepatology 2007; 45(4), which is incorporated by reference herein.
Numeric parameters were expressed as median values and 97.5% confidence intervals, while dichotomous variables were expressed as proportions. Differences in numeric parameters were evaluated by the Exact Wilcoxon-Mann-Whitney Test (R CRAN “coin” package). Differences in proportions were evaluated by the Chi Square test. Percentual reductions of numeric variables at Week 26 were expressed as median values (with 97.5% confidence intervals) of the individual patients' variations from Week 0. Correlation of TG percent reduction with lomitapide dose was calculated by partial Spearman's correlation adjusting for TG baseline absolute values (R CRAN ‘ppcor’ package). All calculations were performed by the R statistical software Version 4.04 under the RStudio Version 1.3.1093 interface.

[4] = 18 subjects, baseline to Week 26

## O=C(NC1CCN(CCCCC2(C(=O)NCC(F)(F)F)c3ccccc3-c3ccccc32)CC1)c1ccccc1-c1ccc(C(F)(F)F)cc1 [lomitapide, N-(2,2,2-trifluoroethyl)-9-[4-[4-[[[4′(trifluoromethyl) [1,1′-biphenyl]-2-yl]carbonyl]amino]-1-piperidinyl]butyl]-9H-fluorene-9carboxamide]
[1]; 18 enrolled
  patients completing the study (26 weeks): 100%
[1]; 26 weeks
  elevations in bilirubin or alkaline phosphatase levels: No subject experienced elevations
[1]; 26 weeks, in words
  tolerability of treatment: well tolerated
[1]; increases managed by dose reduction or temporary interruption
  permanent discontinuation due to liver transaminase elevations: No subject discontinued treatment permanently
[1]; individually determined by lipid profile, safety and tolerability, by Week 26, 18 subjects
  median lomitapide maximum dose: 35 mg/day
[1]; mostly gastrointestinal tolerability and liver enzyme elevations
  severity of adverse events: mild to moderate
[2]; 26 weeks, all patients with history of acute pancreatitis
  episodes of acute pancreatitis or severe abdominal pain during treatment: No patient experienced an episode of acute pancreatitis or severe abdominal pain
[2]; Week 26
  range of TG decrease in the six subjects with decreases up to 50%: 18.25-49.71%
[2]; Week 26, n=18, p<0.0001
  reduction in TG levels from baseline: 70.5%
[2]; Week 26, nine of 18 patients
  patients with TG reduction >70%: 50%
[2]; Week 26, of 18
  subjects achieving TG levels <750 mg/dL (<8.5 mmol/L): Thirteen
[2]; Week 26, six of 18 subjects
  subjects with decreases in TG up to 50%: 33.3%
[2]; Week 26, ten of 18
  patients achieving TG levels <500 mg/dL (<5.6 mmol/L): 55.6%
[2]; Week 26, twelve of 18 patients
  patients with TG reduction >50%: 66.7%
[2]; daily dose
  mean dose when patients crossed the threshold of <500 mg/dL triglycerides: 27 mg
  mean dose when patients crossed the threshold of <750 mg/dL triglycerides: 24 mg
  mean dose when patients crossed the threshold of <1000 mg/dL triglycerides: 18 mg
  median dose when patients crossed the threshold of <500 mg/dL triglycerides: 20 mg
  median dose when patients crossed the threshold of <750 mg/dL triglycerides: 20 mg
  median dose when patients crossed the threshold of <1000 mg/dL triglycerides: 10 mg
[2]; in words
  Lp(a) levels, difference from baseline to Week 26: No significant differences
  hsCRP levels, difference from baseline to Week 26: No significant differences
[2]; in words, over 26 weeks
  fasting triglyceride levels compared to baseline: significant reduction
[2]; n=14 of 18
  patients achieving triglyceride plasma levels <1000 mg/dL: 77.8%
[2]; n=18, Week 26 (baseline 1.2)
  hsCRP, median at Week 26: 1.24 mg/L
[2]; n=18, Week 26 (baseline 6)
  Lp(a), median at Week 26: 5.5 nmol/L
[2]; n=18, Week 26 (baseline 16)
  HDL-C, median at Week 26: 18 mg/dL
[2]; n=18, Week 26 (baseline 81.85)
  ApoB, median at Week 26: 39.25 mg/dL
[2]; n=18, Week 26 (baseline 93.7)
  ApoA-I, median at Week 26: 74.95 mg/dL
[2]; n=18, Week 26 (baseline 184)
  non-HDL-C, median at Week 26: 90.0 mg/dL
[2]; n=18, Week 26 (baseline 205.5)
  TC, median at Week 26: 94 mg/dL
[2]; n=18, baseline to Week 26
  ApoA-I, median of individual changes from baseline %: −28.1% and −23.0%
  ApoB, median of individual changes from baseline %: −43.8%
  HDL-C, median of individual changes from baseline %: 20.7% and +20.7%
  Lp(a), median of individual changes from baseline %: +40.5%
  TC, median of individual changes from baseline %: −51.7%
  hsCRP, median of individual changes from baseline %: 9.8%
  non-HDL-C, median of individual changes from baseline %: −50.0%
[2]; n=18, baseline to Week 26, primary endpoint
  TG, median of individual changes from baseline %: −70.5%
[2]; n=18 FCS patients, fasting, lomitapide at maximum tolerated dose plus lipid-lowering therapy, Week 26 (baseline 1803.5)
  TG, median at Week 26: 305.0 mg/dL
[3]; 9 subjects, Week 26 (baseline 12.0)
  Hepatic fat content on MRI, median at Week 26: 32.5%
[3]; 9 subjects, baseline to Week 26
  Hepatic fat content on MRI, individual change from baseline, %: +146.4%
[3]; 14 subjects, Week 26 (baseline 5.7)
  LSM (liver stiffness measurement), median at Week 26: 5.5 kPa
[3]; 18 subjects, Week 26 (baseline 0.76)
  FIB-4, median at Week 26: 1.03
[3]; 18 subjects, Week 26 (baseline 0.786)
  NFS, median at Week 26: 0.428
[3]; [4]
  FIB-4, individual change from baseline, %: +38.44%
  NFS, individual change from baseline, %: −51.69%
[3]; baseline to Week 26, in words
  non-invasive liver fibrosis measurements (liver stiffness, FIB-4 and NFS scores), change: No significant changes
[3]; liver MRI
  hepatic fat content at week 26 in 3 patients with an increase: 30-50%
